Values of other authors, collected in US20230102999A1, “DEUTERATED NICLOSAMIDE” (First Wave Bio, Inc., priority 2020, published 2023).
Counter-ions that a name gives are not always drawn.

Legend:
[1] = at 20° C.

water solubility ([1]; water)	solubility in acetone (acetone)	solubility in ether, ethanol and chloroform (ether, ethanol and chloroform)	dissolves in distilled water ([1]; distilled water)	SMILES
5 to 8 µg/mL	soluble	sparingly soluble		O=C(Nc1ccc([N+](=O)[O-])cc1Cl)c1cc(Cl)ccc1O [Niclosamide, 5-chloro-N-(2-chloro-4-nitrophenyl)-2-hydroxybenzamide]
			180 to 280 mg/L	O=C(Nc1ccc([N+](=O)[O-])cc1Cl)c1cc(Cl)ccc1O [ethanolamine salt, 5-chloro-salicyl-(2-chloro-4-nitro) anilide 2-aminoethanol salt]
